# Reference: patent publication US4325974A, “β, γ-Dihydropolyprenyl alcohol and hypotensive pharmaceutical composition containing same” (Eisai Co., Ltd., priority 1978, dated 1982)
# What was measured:
# [1] = tested on: spontaneously hypertensive rats (SHR) of Okamoto and Aoki; assay: Hypotensive effect on spontaneously hypertensive rats (blood pressure, tail-cuff method; heart rate, tachometer); assay type: in vivo, rat (SHR of Okamoto and Aoki); settings: 10 mg/kg oral
# Method: I. The hypotensive effect of the formula (I) compound, according to the invention, on spontaneously hypertensive rats (hereinafter referred to as SHR) of Okamoto and Aoki:
# The hypotensive effects of the test compounds on SHR of Okamoto and Aoki of about 35 weeks age were determined. The systolic blood pressure of the SHR was around 230 mmHg.
# The test compounds were given to the SHR orally in the form of a suspension in aqueous acacia solution. The SHR were divided into a test compound group to which a test compound was administered and a control group to which only an aqueous acacia solution (free of test compound) was administered. Each group comprised three SHR.
# The blood pressure of the SHR was measured with a Shimazu continuous tonometer SCS-301 (a product of Shimazu Seisakusho Co., Ltd.). Tail artery pressure was indirectly measured by a tail-cuff method.
# The blood pressure was measured immediately before the administration and at 2, 4, 6 and 24 hours after the administration to determine the change in blood pressure with the passing of time.
# The heart rate was determined by recording the pulse rate at the tail of the SHR with a tachometer of said tonometer […]. Test Compound and Dose
# 10 mg/kg (body weight of SHR)
# [2] = tested on: hepatic disease (hepatitis), induced by intraabdominal administration of D-galactosamine; assay: Effect on hepatic disease (hepatitis) induced by intraabdominal administration of D-galactosamine; assay type: in vivo; settings: SD rats
# Method: II. The effects of the formula (I) compound, according to the invention, on hepatic disease (hepatitis), induced by intraabdominal administration of D-galactosamine.
# SD rats weighing about 250 g were used as test animals. D-Galactosamine hydrochloride (250 mg/kg each administration) and the test compound (50 mg/kg each administration) were administered intraabdominally to the rats on the schedule of experiments set forth below. After completion of the administration, blood was drawn from the test animals. The GPT value and alkali phosphatase value of the blood, which are indexes of the hepatic disease, were determined.
# The test compound was used in the form of a suspension in 5% aqueous acacia solution. D-Galactosamine hydrochloride was used in the form of an aqueous solution thereof in distilled water, which solution was adjusted to pH 7 with potassium hydroxide. The rats were divided into three groups, i.e., a test compound group (comprising 9 rats) to which the test compound was administered, a control group (comprising 14 rats) to which 5% aqueous acacia solution free of the test compound was administered and a normal group (comprising 9 rats) to which neither the test compound nor D-galactosamine hydrochloride was administered. [drawing 9]
smiles,measurement,setting,value
"CC(C)=CCCC(C)=CCCC(C)=CCCC(C)=CCCC(C)=CCCC(C)=CCCC(C)=CCCC(C)=CCCC(C)=CCCC(C)CCO (centres unmarked) [test compound, 3,7, 11, 15, 19, 23, 27, 31, 35, 39-Decamethyl-6, 10, 14, 18, 22, 26, 30, 34, 38-tetracontanonaene-1-ol]",blood pressure two hours after the administration,"[1]; 2 h, before administration 227±7 mmHg",207±9 mmHg
same,blood pressure six hours after the administration,"[1]; 6 h, before administration 227±7 mmHg, control 232±7 mmHg at 6 h",202±12 mmHg
same,blood pressure 24 hours after the administration,"[1]; 24 h, before administration 227±7 mmHg",212±9 mmHg
same,effect on the heart rate,[1]; result in words,No effect on the heart rate was observed
same,hypotensive effect,[1]; result in words,"clear, long-lasting hypotensive effect"
same,effect on hepatic disease induced by D-galactosamine hydrochloride,"[2]; 50 mg/kg each intraabdominal, result in words",ameliorated or prevented
same,Alkali phosphatase value,"[2]; test compound 50 mg/kg each and D-galactosamine hydrochloride 250 mg/kg each, intraabdominal, control 70.9 ± 3.9, normal 32.3 ± 2.5",63.7 ± 4.3 KA-U
same,GPT Value,"[2]; test compound 50 mg/kg each and D-galactosamine hydrochloride 250 mg/kg each, intraabdominal, control 1041.4 ± 200.8, normal 46.5 ± 4.9",523.3 ± 111.7 Carmen unit
